PMC3624020 (Nature communications, 2011)

Experiments:
[1] = system: sigma-2 receptors in hepatic membrane homogenates; assay: blocking of WC-21 photoaffinity labeling of the ~24 kD protein band; type: binding; conditions: rat liver membrane homogenates, photo cross-linked with WC-21, western blot
[2] = system: PGRMC1 in A549 lung cancer cells; conditions: ref [33], [37]; cited from earlier work

| SMILES | blocking of WC-21 labeling of the ~24 kD protein band [1] | upregulation of PGRMC1 [2] |
| --- | --- | --- |
| COc1cc2c(cc1OC)CN(CCCCNC(=O)c1cc(C)ccc1OC)CC2 [RHM-1, N-[4-(3,4-dihydro-6,7-dimethoxyisoquinolin-2(1H)-yl)butyl]-2-methoxy-5-methylbenzamide] | blocked | – |
| Cc1ccc2c(c1)[C@H]1CN(C)CC[C@H]1N2C(=O)CSc1nnnn1-c1ccc(Cl)cc1 [AG-205] | – | induced an upregulation |
| Cc1ccccc1N=C(N)Nc1ccccc1C [DTG] | blocked | – |
